Measured values: patent US20250145589A1, “PYRIDINE DERIVATIVE AND USE THEREOF” (SICHUAN HUIYU PHARMACEUTICAL CO., LTD., priority 2021, published 2025)
Where two headings read alike, the source gives them in different places.

Experiments:
[1] = molecular target: PI3Kα (Homo sapiens (Human), UniProt P42336); assay: Inhibition of PI3Kα efficacy assay (ADP-Glo kinase assay); assay type: biochemical; details: read-out: PI3Kα inhibitory activity (IC50)
Summary of the method: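 ADP-Glo luminescent detection of ADP from PI3Kα acting on PI substrate with ATP, 60 min at RT; compounds in 8-point five-fold serial dilution from 2 mM DMSO stock. IC50 from four-parameter variable-slope fit.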

[2] = molecular target: PI3Kδ (Homo sapiens (Human), UniProt O00329); assay: Inhibition of PI3Kδ efficacy assay (ADP-Glo kinase assay); assay type: biochemical; details: read-out: PI3Kδ inhibitory activity (IC50)
Sequence of PI3Kδ (O00329 whole entry): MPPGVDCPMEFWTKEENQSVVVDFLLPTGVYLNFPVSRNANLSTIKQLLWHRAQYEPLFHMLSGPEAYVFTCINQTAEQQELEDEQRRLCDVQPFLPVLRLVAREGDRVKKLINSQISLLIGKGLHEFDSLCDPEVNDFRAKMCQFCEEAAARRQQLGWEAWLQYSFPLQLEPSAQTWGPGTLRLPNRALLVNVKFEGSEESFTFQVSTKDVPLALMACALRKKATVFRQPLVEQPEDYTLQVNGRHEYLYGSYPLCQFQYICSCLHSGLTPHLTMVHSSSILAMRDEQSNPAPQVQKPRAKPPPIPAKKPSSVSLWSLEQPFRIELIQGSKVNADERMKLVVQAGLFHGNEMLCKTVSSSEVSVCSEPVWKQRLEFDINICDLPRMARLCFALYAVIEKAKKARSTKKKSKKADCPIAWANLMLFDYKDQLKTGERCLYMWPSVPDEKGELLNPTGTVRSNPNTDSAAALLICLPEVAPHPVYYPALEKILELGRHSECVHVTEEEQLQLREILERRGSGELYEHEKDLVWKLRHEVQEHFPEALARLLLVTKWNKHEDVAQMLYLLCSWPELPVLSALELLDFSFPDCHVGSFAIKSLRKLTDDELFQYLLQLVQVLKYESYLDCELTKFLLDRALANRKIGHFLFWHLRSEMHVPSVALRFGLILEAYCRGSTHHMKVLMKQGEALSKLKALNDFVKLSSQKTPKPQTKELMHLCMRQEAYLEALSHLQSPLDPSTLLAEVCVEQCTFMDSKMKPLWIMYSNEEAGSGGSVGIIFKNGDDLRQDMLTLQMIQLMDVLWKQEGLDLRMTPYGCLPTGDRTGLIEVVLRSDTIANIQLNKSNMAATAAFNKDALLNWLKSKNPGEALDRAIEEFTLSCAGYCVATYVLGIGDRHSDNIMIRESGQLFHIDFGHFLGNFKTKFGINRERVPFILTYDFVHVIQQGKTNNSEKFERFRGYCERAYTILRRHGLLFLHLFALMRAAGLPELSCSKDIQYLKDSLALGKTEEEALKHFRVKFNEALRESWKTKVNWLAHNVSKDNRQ
Sequence of PI3Kδ (P27986 whole entry partner): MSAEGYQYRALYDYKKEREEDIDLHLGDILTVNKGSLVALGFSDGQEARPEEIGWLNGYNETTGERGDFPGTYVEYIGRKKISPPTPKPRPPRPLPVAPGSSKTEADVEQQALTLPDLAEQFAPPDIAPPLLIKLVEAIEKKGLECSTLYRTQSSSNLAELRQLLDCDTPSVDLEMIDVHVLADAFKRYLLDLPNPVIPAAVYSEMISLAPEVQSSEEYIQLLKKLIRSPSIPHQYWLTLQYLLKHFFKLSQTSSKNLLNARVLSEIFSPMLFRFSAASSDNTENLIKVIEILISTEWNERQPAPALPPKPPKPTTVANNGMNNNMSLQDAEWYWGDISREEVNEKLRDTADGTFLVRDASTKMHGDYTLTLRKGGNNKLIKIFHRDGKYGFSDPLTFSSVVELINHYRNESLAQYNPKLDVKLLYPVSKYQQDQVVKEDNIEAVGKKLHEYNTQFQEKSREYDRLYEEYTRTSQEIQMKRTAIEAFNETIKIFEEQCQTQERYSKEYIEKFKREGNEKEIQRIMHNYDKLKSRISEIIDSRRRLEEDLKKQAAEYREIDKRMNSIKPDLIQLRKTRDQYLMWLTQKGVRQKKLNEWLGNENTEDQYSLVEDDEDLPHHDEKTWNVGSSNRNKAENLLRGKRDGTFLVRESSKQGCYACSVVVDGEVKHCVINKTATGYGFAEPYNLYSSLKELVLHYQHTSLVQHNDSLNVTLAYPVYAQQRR
Summary of the method: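 Luminescent ADP-Glo readout of PI3Kδ: after a 60 min RT reaction with PI/ATP substrate, ATP depletion (40 min) and ADP detection (40 min) steps followed. Compounds tested as eight five-fold serial dilutions; inhibition rates fitted to log(inhibitor) vs. response, variable slope, for IC50.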

[3] = molecular target: KRAS^G12C-SOS1 (Homo sapiens (Human), UniProt P01116, G12C); assay: HTRF KRAS G12C/SOS1 binding assay; details: Table 5
Sequence of KRAS^G12C-SOS1 (P01116-2 other isoform, or with tags, fused parts or gaps G12C): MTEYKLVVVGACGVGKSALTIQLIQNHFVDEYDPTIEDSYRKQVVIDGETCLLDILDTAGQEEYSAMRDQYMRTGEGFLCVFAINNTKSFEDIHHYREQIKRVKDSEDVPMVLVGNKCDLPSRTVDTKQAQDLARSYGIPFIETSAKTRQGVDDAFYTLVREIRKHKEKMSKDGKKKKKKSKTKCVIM
Summary of the method: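 Compound was serially diluted five-fold over eight points, with a 2 mM DMSO stock. After anti-tag-Tb3+ and anti-tag-XL665 were added, plates were incubated 3 h at 4 °C and read by HTRF (ex 337 nm, em 620/665 nm ratio). IC50 values come from four-parameter variable-slope fits.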

[4] = test system: NCI-H358 cells (KRAS G12C mutant); assay: NCI-H358 cell proliferation inhibition (CellTiter-Glo); assay type: cell-based; details: H358 cells (G12C mutation), 3 days, Table 6, read-out: NCI-H358 (IC50)
[5] = test system: NCI-H358-AMGR drug-resistant cell line; assay: NCI-H358-AMGR drug-resistant cell proliferation inhibitory activity test; assay type: cell-based; details: NCI-H358-AMGR drug-resistant cells, 3 days incubation, CellTiter-Glo
Summary of the method: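 Luminescent CellTiter-Glo read-out after 3-day, 37° C compound exposure (8 points, 5-fold series) of AMG510-resistant NCI-H358 cells plated at 4×10^3 per well.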

Sequence of PI3Kα (P42336 whole entry): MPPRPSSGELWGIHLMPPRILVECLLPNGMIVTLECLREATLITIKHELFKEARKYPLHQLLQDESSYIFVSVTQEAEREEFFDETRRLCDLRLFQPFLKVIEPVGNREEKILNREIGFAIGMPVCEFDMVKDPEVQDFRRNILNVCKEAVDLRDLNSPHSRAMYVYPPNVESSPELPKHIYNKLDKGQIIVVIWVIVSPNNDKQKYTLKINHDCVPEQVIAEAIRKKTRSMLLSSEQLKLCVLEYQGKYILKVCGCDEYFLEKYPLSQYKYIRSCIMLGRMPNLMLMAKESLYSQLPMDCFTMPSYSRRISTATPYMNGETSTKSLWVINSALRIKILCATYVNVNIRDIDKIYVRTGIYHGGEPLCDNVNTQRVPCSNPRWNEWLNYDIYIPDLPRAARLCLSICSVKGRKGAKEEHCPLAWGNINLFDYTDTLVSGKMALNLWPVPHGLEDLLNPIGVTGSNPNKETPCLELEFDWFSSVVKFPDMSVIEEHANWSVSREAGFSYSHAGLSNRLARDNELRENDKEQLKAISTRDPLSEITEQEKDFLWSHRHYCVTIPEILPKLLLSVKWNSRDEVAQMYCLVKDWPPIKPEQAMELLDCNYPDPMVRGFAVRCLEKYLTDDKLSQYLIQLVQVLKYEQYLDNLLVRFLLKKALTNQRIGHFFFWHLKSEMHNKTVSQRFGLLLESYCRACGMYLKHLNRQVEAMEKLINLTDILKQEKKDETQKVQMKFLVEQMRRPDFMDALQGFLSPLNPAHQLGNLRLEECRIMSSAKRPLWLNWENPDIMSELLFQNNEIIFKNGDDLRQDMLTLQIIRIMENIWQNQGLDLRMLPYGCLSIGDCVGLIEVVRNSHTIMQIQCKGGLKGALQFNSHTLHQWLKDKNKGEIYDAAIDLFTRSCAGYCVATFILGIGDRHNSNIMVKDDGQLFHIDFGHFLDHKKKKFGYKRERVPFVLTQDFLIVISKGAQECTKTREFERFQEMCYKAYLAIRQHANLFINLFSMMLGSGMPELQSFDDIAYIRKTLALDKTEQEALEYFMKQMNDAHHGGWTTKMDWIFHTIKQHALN
Sequence of PI3Kα (P27986 whole entry partner): as the sequence (P27986 whole entry partner) above

Row | Structure (SMILES) | IC50 ([1]; Table 2) [µM] | IC50 ([2]; Table 2) [µM] | IC50 [3] [µM] | IC50 ([4]; Homo sapiens, NCI-H358, 72 h) [µM] | IC50 ([5]; 72 h) [µM] | IC50 [4] [µM] | IC50 [5] [µM] | IC50 ([1]; Table 3) [µM] | IC50 ([2]; Table 3) [µM] | IC50 ([1]; Table 4) [µM] | IC50 ([2]; Table 4) [µM]
1 | COc1ncc(-c2ccc3ncnc(N4CCN(C(=O)/C=C/C(C)=O)CC4)c3c2)cc1NS(=O)(=O)c1ccc(F)cc1 [Example 92, (E)-4-fluoro-N-(2-methoxy-5-(4-(4-(4-oxopent-2-enoyl)piperazin-1-yl)quinazolin-6-yl)pyridin-3-yl)benzenesulfonamide] | 0.0064 | 0.0511 | 0.369 | 0.0167 | 0.111 |  |  |  |  |  | 
2 | COc1ncc(-c2ccc3ncnc(N4CCN(C(=O)/C=C/C(C)=O)CC4)c3c2)cc1NS(=O)(=O)c1ccccc1C [Example 93, (E)-N-(2-methoxy-5-(4-(4-(4-oxopent-2-enoyl)piperazin-1-yl)quinazolin-6-yl)pyridin-3-yl)-2-methylbenzenesulfonamide] | 0.006 | 0.0729 | 0.344 | 0.018 | 0.0693 |  |  |  |  |  | 
3 | COc1ncc(-c2ccc3ncnc(N4CCN(C(=O)/C=C/C(C)=O)CC4)c3c2)cc1NS(=O)(=O)c1cc(F)ccc1F [Example 94, (E)-2,5-difluoro-N-(2-methoxy-5-(4-(4-(4-oxopent-2-enoyl)piperazin-1-yl)quinazolin-6-yl)pyridin-3-yl)benzenesulfonamide] | 0.011 | 0.0567 | 0.189 | 0.0625 | 0.0652 |  |  |  |  |  | 
4 | COc1ncc(-c2ccc3ncnc(N4CCN(C(=O)/C=C/C(C)=O)CC4)c3c2)cc1NS(=O)(=O)c1c(F)cc(F)cc1F [Example 99, (E)-2,4,6-trifluoro-N-(2-methoxy-5-(4-(4-(4-oxopent-2-enoyl)piperazin-1-yl)quinazolin-6-yl)pyridin-3-yl)benzenesulfonamide] | 0.006 | 0.0079 | 0.188 | 0.0096 | 0.0652 |  |  |  |  |  | 
5 | COc1ncc(-c2ccc3ncnc(N4CCC5(CC4)CN(C(=O)/C=C/C(C)=O)C5)c3c2)cc1NS(=O)(=O)c1c(F)cc(F)cc1F [Example 101, (E)-2,4,6-trifluoro-N-(2-methoxy-5-(4-(2-(4-oxopent-2-enoyl)-2,7-diazaspiro[3.5]nonan-7-yl)quinazolin-6-yl)pyridin-3-yl)benzenesulfonamide] | 0.0099 | 0.0336 | 0.198 | 0.0116 | 0.0283 |  |  |  |  |  | 
6 | COc1ncc(-c2ccc3ncnc(N4CCN(C(=O)/C=C/C(C)=O)CC4)c3c2)cc1NS(=O)(=O)c1c(F)cncc1F [Example 102, (E)-3,5-difluoro-N-(2-methoxy-5-(4-(4-(4-oxopent-2-enoyl)piperazin-1-yl)quinazolin-6-yl)pyridin-3-yl)pyridine-4-sulfonamide] | 0.0012 | 0.0328 | 0.141 | 0.073 | 0.516 |  |  |  |  |  | 
7 | CCOc1ncc(-c2ccc3ncnc(N4CCN(C(=O)/C=C/C(C)=O)CC4)c3c2)cc1NS(=O)(=O)c1ccc(F)cc1F [Example 109, (E)-N-(2-ethoxy-5-(4-(4-(4-oxopent-2-enoyl)piperazin-1-yl)quinazolin-6-yl)pyridin-3-yl)-2,4-difluorobenzenesulfonamide] | 0.0035 | 0.0489 | 0.499 | 0.0638 | 0.113 |  |  |  |  |  | 
8 | COc1ncc(-c2ccc3ncnc(N4CCN(C(=O)/C=C/C(C)=O)CC4)c3c2)cc1NS(=O)(=O)c1ccc(C)cc1F [Example 111] | 0.0088 | 0.0232 | 0.364 |  |  | 0.0158 | 0.118 |  |  |  | 
9 | COc1ncc(-c2ccc3ncnc(N4CCN(C(=O)/C=C/C(C)=O)[C@@H](CC#N)C4)c3c2)cc1NS(=O)(=O)c1c(F)cccc1F [Example 116, (S,E)-N-(5-(4-(3-(cyanomethyl)-4-(4-oxopent-2-enoyl)piperazin-1-yl)quinazolin-6-yl)-2-methoxypyridin-3-yl)-2,6-difluorobenzenesulfonamide] | 0.0018 | 0.027 | 1.57 | 0.0959 | 0.232 |  |  |  |  |  | 
10 | COc1ncc(-c2ccc3ncnc(N4CCN(C(=O)/C=C/C(C)=O)CC4)c3c2)cc1NS(=O)(=O)c1c(F)cccc1C#N [Example 122, (E)-2-cyano-6-fluoro-N-(2-methoxy-5-(4-(4-(4-oxopent-2-enoyl)piperazin-1-yl)quinazolin-6-yl)pyridin-3-yl)benzenesulfonamide] | 0.0081 | 0.0047 | 0.145 | 0.0479 | 0.128 |  |  |  |  |  | 
11 | COc1ncc(-c2ccc3ncnc(N4CCN(C(=O)/C=C/C(C)=O)CC4)c3c2)cc1NS(=O)(=O)c1ccc(C(F)(F)F)cc1F [Example 124, (E)-2-fluoro-N-(2-methoxy-5-(4-(4-(4-oxopent-2-enoyl)piperazin-1-yl)quinazolin-6-yl)pyridin-3-yl)-4-(trifluoromethyl)benzenesulfonamide] | 0.0044 | 0.0614 | 0.73 | 0.0197 | 0.0855 |  |  |  |  |  | 
12 | COc1ncc(-c2ccc3ncnc(N4CCN(C(=O)/C=C/C(C)=O)CC4)c3n2)cc1NS(=O)(=O)c1c(F)cccc1F [Example 131, (E)-2,6-difluoro-N-(2-methoxy-5-(4-(4-(4-oxopent-2-enoyl)piperazin-1-yl)pyrido[3,2-d]pyrimidin-6-yl)pyridin-3-yl)benzenesulfonamide] |  |  | 0.2 | 0.0052 | 0.0191 |  |  | 0.0016 | 0.0137 |  | 
13 | COc1ncc(-c2ccc3ncnc(N4C5CCC4CN(C(=O)/C=C/C(C)=O)C5)c3c2)cc1NS(=O)(=O)c1ccc(F)cc1F [Example 144, 2,4-difluoro-N-(2-methoxy-5-(4-(3-((E)-4-oxopent-2-enoyl)-3,8-diazabicyclo[3.2.1]octan-8-yl)quinazolin-6-yl)pyridin-3-yl)benzenesulfonamide] |  |  | 0.39 | 0.0478 | 0.0431 |  |  |  |  | 0.0032 | 0.0134
14 | COc1ncc(-c2ccc3ncnc(N4CC5CCC(C4)N5C(=O)/C=C/C(C)=O)c3c2)cc1NS(=O)(=O)c1c(F)cccc1F [Example 145, 2,6-difluoro-N-(2-methoxy-5-(4-(8-((E)-4-oxopent-2-enoyl)-3,8-diazabicyclo[3.2.1]octan-3-yl)quinazolin-6-yl)pyridin-3-yl)benzenesulfonamide] |  |  | 0.2 | 0.0362 | 0.223 |  |  |  |  | 0.00044 | 0.0238
15 | COc1ncc(-c2ccc3ncnc(N4CCC5(CC4)CN(C(=O)/C=C/C(C)=O)C5)c3c2)cc1NS(=O)(=O)c1ccccc1F [Example 150, (E)-2-fluoro-N-(2-methoxy-5-(4-(2-(4-oxopent-2-enoyl)-2,7-diazaspiro[3.5]nonan-7-yl)quinazolin-6-yl)pyridin-3-yl)benzenesulfonamide] |  |  | 0.236 | 0.0164 | 0.112 |  |  |  |  | 0.00011 | 0.0107
16 | COc1ncc(-c2ccc3ncnc(N4CCN(C(=O)/C=C/C(C)=O)C[C@@H]4C)c3c2)cc1NS(=O)(=O)c1ccccc1F [Example 152, (S,E)-2-fluoro-N-(2-methoxy-5-(4-(2-methyl-4-(4-oxopent-2-enoyl)piperazin-1-yl)quinazolin-6-yl)pyridin-3-yl)benzenesulfonamide] |  |  | 0.175 | 0.0298 | 0.0621 |  |  |  |  | 0.00028 | 0.0155
17 | COc1ncc(-c2ccc3ncnc(N4CCN(C(=O)/C=C/C(C)=O)C[C@@H]4C)c3c2)cc1NS(=O)(=O)c1ccc(F)cc1 [Example 153, (S,E)-4-fluoro-N-(2-methoxy-5-(4-(2-methyl-4-(4-oxopent-2-enoyl)piperazin-1-yl)quinazolin-6-yl)pyridin-3-yl)benzenesulfonamide] |  |  | 0.21 | 0.0598 | 0.1 |  |  |  |  | 0.00073 | 0.0127
18 | COc1ncc(-c2ccc3ncnc(N4CCN(C(=O)/C=C/C(C)=O)C[C@@H]4C)c3c2)cc1NS(=O)(=O)c1c(F)cc(F)cc1F [Example 154, (S,E)-2,4,6-trifluoro-N-(2-methoxy-5-(4-(2-methyl-4-(4-oxopent-2-enoyl)piperazin-1-yl)quinazolin-6-yl)pyridin-3-yl)benzenesulfonamide] |  |  | 0.183 | 0.0167 | 0.0616 |  |  |  |  | 0.00054 | 0.0138
19 | COc1ncc(-c2ccc3ncnc(N4CC5CCC(C4)N5C(=O)/C=C/C(C)=O)c3c2)cc1NS(=O)(=O)c1c(F)cc(F)cc1F [Example 155] |  |  | 0.462 | 0.0403 | 0.164 |  |  |  |  | 0.0003 | 0.0531
